Where two headings read alike, the source gives them in different places.

The values below come from US11198741B2, “Medicines for topic use based on sulfated hyaluronic acid as activating or inhibiting agent of the cytokine activity” (Fidia Farmaceutici S.p.A., priority 2009, dated 2021).

Experiment [1] relates to Vesicular stomatitis virus: VSV. The experiment is classed as cell-based.
The test system of experiment [2] is IL-12. In words: Gene expression of IL-12 in human synoviocytes (PCR Real Time). It is filed as cell-based. To be noted: 3 days of treatment, FIG. 2: 0.5 mg/ml, vs control treated with non-sulfated HA 200 KD. The procedure:
(§1) Human synoviocytes previously expanded in vitro and maintained in a culture at 37° C. with a medium of DMEM containing 10% of FCS, were seeded at a concentration of 20,000 cells per well (synoviocytes are cells capable of producing various types of cytokines, and are therefore normally used for this type of experimental test). […] After 3 days of treatment, the PCR Real Time was effected to evaluate the gene expression of IL-10 and IL-12: the cell RNA was extracted using the “Trizol” method, following the indications of the supplier (TRIZOL reagent, LIFE Technologies, GIBCO BRL). In short, the cells were lysed by the addition of 1.0 ml of Trizol and the total RNA was quantified by measuring its absorbance at 260 nm. The appropriate primers were selected for each gene to be amplified, using the software Primer3 (Roche Molecular Diagnostics, Pleasanton, Calif., USA). The gene expression was evaluated by means of PCR Real Time effected with a Rotor-gene TM5500 (Corbett research, Sydney, Australia). The PCR reactions were effected using primers at […] and SYBR Green (Invitroge, Carlsbad, Calif., USA) at 40 cycles of 15 s at 95° C., and 1 min. at 60° C. The value of “Fluorescence thresholds (Ct)” was automatically determined by the software, evaluating an amplification coefficient for the genes studied between 92 and 110%. […]

The test system of another experiment is IL-2. In words: Protein synthesis of IL-2 in human PBMC (SearchLight array). Particulars: not stimulated or stimulated with LPS or PHA (10 μg/ml), 24 hours, FIG. 6: HAS1 0.1 mg/ml, HAS3 1 mg/ml, vs HA.
Experiment [3] has as its system Herpes Simplex Virus-2 (HSV-2: G, 196 and Lyons strain). The experiment is described as follows: Inhibition of viral cytopathogenicity in E6SM fibroblast cells, HSV-2. It is filed as cell-based. To be noted: 2nd day of incubation, numbers only in FIG. 10. In general terms: Damage to the host cells serves as the signal in cytopathic effect assays.
The subject of experiment [4] is Herpes Simplex Virus-1 (HSV-1: KOS, F and McIntyre strain). In words: Inhibition of viral cytopathogenicity in E6SM fibroblast cells, HSV-1. The experiment is classed as cell-based. Particulars: 2nd day of incubation, numbers only in FIG. 10.
The next experiment has as its system IL-10. The experiment is described as follows: Gene expression of IL-10 in human synoviocytes (PCR Real Time). The experiment is classed as cell-based. Particulars: 3 days of treatment, FIG. 1: HAS1 0.5 mg/ml, HAS3 0.1 mg/ml, vs control treated with non-sulfated HA 200 KD. The protocol: as §1
The test system of experiment [5] is Cytomegalovirus (CMV: AD-169 and Davis strain). In words: Inhibition of Cytomegalovirus plaque formation in HEL cells. The experiment is classed as cell-based. Particulars: numbers only in FIG. 11. The procedure: The activity of the samples tested was determined by evaluating the inhibition of the cytopathogenicity determined by Cytomegalovirus (CMV: AD-169 and Davis strain) using the previous protocol. The antiviral activity was tested vs HEL cells (pulmonary embryonic cells) and was expressed as the concentration required for inhibiting the number of plaques formed by the above virus by 50%.

For experiment [6], the system named is IL-12. In words: Protein synthesis of IL-12 in human PBMC (SearchLight array). Particulars: not stimulated or stimulated with LPS or PHA (10 μg/ml), 24 hours, FIG. 8: 1 mg/ml, vs HA.
Description: (§2) For these experimentations, mononucleate cells of human peripheral blood (PBMC) were adopted, deriving from various donors for evaluating the effect of HAS on the production of the cytokines listed above, using:
(§3) The separation of the PBMC (Bøyum A., Scand J Clin Lab Invest 21 Suppl, 1968, 97:77-89) was effected using the product Ficoll-Paque PLUS (GE Healthcare) and following the protocol indicated by the supplier. At day zero 100,000 cells were plated per well (using plates with 96 wells) in 200 μl of medium RPMI 1640, to which 10% of fetal bovine serum, HEPES 10 mM, Glutamine 2 mM, 1% Penicillin-Streptomycin 100 U/ml, had been added. […] The cells were treated separately with the three compounds at a concentration of 0.1 mg/ml or 1 mg/ml. After 24 hours of incubation at 37° C. (5% CO2), 100 μl of supernatant were taken from each well in order to analyze the production of IL-2, IL-7, IL-10 and IL-12.
(§4) The quantification of the inflammation mediators was effected by means of the SearchLight® technology, using a Custom Human 9-flex Array plate following the protocol indicated by the supplier in the technical card.
The subject of the next experiment is IL-7. In words: Protein synthesis of IL-7 in human PBMC (SearchLight array). Particulars: not stimulated or stimulated with LPS or PHA (10 μg/ml), 24 hours, FIG. 7: 1 mg/ml, vs HA.
The next experiment has as its system TNF receptor. In words: Inhibition of the binding of 125I-TNF to its receptor in U937 cells (Radioligand Binding). Details: species or system human. To be noted: 125I-TNF 0.028 nM, sample 1 mg/ml, 4° C. 3 hours, medium and low MW. The text has this: These experiments were effected to evaluate the effectiveness of the samples tested (prepared according to Examples 1-4) on the capacity of inhibiting the binding of TNF to its receptor expressed by cells of the I.S. normally used in vitro for this type of experiment, carried out with iodinated cytokine components for an evaluation in Radioligand Binding assays. The experimental procedure was effected as described in Baglioni C. et al., J Biol Chem, 1985, 260:13395-13397. In short, the line of human histiocytes of the lymphoma U937 was used, with characteristics of monocytes sensitive to the cytotoxic activity of TNF, expressing its relative receptor. […] At the end of the incubation, the cells were centrifuged with dibutylphthalate/dinonylphthalate 2/1 and the pellet obtained was counted in a γ-counter.

The next experiment deals with T1, fibrin clot (Homo sapiens, UniProt P02671+P02675+P02679).
T1 sequence (P02671 20-644 isoform P02671-2 limits assumed): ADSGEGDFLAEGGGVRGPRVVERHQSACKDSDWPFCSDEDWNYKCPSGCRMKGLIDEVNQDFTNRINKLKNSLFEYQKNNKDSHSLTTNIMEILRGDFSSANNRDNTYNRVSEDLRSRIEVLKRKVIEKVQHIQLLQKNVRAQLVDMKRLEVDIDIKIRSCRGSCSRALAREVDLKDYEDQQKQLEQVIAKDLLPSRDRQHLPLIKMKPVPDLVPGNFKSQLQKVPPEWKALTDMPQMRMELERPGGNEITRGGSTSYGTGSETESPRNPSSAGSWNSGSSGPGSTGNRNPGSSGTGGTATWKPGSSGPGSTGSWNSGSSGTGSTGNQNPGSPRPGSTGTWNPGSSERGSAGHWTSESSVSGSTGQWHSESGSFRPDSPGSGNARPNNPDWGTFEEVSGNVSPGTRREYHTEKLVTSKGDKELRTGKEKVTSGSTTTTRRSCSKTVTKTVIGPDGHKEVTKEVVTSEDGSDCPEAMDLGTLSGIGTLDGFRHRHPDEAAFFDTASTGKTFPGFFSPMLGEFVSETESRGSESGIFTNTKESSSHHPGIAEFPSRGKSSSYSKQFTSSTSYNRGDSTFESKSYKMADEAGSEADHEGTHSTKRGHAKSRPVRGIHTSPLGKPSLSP
T1 sequence (P02675 45-491 limits assumed): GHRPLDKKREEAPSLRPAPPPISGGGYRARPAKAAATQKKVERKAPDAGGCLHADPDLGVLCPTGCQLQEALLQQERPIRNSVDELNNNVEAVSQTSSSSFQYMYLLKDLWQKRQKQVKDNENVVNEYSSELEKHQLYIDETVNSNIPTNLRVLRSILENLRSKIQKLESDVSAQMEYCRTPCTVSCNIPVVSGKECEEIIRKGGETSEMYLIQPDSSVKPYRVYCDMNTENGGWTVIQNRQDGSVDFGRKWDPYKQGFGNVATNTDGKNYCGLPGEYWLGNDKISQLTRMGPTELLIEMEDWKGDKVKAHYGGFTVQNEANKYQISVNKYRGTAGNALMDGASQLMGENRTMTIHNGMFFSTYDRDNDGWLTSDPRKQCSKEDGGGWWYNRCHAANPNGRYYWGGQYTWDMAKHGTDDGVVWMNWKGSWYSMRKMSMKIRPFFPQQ
T1 sequence (P02679 27-437 isoform P02679-2 limits assumed): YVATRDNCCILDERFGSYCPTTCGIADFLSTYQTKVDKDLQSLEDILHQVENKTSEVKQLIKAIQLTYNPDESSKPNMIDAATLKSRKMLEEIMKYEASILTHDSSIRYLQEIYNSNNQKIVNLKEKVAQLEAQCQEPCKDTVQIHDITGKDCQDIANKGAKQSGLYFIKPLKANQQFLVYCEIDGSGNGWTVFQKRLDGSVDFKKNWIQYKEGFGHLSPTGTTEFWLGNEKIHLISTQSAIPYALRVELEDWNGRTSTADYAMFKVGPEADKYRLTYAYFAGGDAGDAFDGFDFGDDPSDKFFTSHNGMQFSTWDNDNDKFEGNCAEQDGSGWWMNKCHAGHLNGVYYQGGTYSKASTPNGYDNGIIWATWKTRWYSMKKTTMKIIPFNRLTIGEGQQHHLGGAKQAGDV
The experiment is described as follows: In vitro fibrinolytic activity: dissolution of fibrin clot in coagulated plasma (absorbance at 405 nm). It is filed as biochemical. To be noted: 37° C. The procedure: The evaluation of the fibrinolytic properties of the products subjected to the test was compared with the acknowledged fibrinolytic activity of the plasmin. In particular, the dissolution rate of the fibrin network and formation of soluble products of the fibrin degradation (FDP), was evaluated.
In order to test the fibrinolytic effectiveness of the products subjected to testing, the blood samples were distributed in various test-tubes in which the clot formation was induced.
The formation of FDP was then evaluated after the addition of:
The freshly removed blood samples were distributed in various test-tubes containing sodium citrate in a ratio of 9:1. The test-tubes were immediately centrifuged at 3,000 rpm for 5 minutes. The plasma obtained was transferred to a new test-tube and immediately used for effecting the FDP evaluation.
Thrombin (300 mU/ml), preheated to 37° C. was added to the plasma samples, as activator of the fibrinogen in inducing the formation of the clot.
The following were added to the different cuvettes containing the fibrin clot:
a plasmin solution 0.5 mU, 5 mU, 50 mU, 500 mU and 1 U
solutions of HAS3 at concentrations of 25 mg/ml, 50 mg/ml, 100 mg/ml, 150 mg/ml and 200 mg/ml.
The absorbance variation at 405 nm for 60 sec. was evaluated spectrophotometrically for each cuvette. The reaction was left to proceed until the complete dissolution of the clot.
Coagulated plasma, plasmin solution and a solution of HAS3 200 KD and HAS3 20 KD were mixed in a ratio of 1:1 v/v and maintained at an operating temperature of 37° C.

Description for IL-2: as §2, §3, §4
Description for IL-7: as §2, §3, §4

Consider `Nc1nc2c(ncn2COCCO)c(=O)[nH]1` [acyclovir, Acyclovir, reference compound], for which the “antiviral activity (inhibition of the cytopathogenicity of the virus) vs VSV” value in experiment [1] (E6SM cells, 2nd day of incubation, numbers only in FIG. 10) is “inactive”.

Take “sulfated hyaluronic acid degree 1 [HAS1]”: the “gene expression of IL-12 (synthesis of its mRNA)” value in the experiment with IL-12 [2] is given as “halving the synthesis of its mRNA”. Besides, the “synthesis of IL-2” value with IL-2 is on record as “significantly reducing”. Besides, the “antiviral activity (inhibition of the cytopathogenicity of the virus) vs HSV-2” value in experiment [3] is “powerful antiviral action”. Further, the “antiviral activity (inhibition of the cytopathogenicity of the virus) vs VSV” value in experiment [1] is “very powerful antiviral activity”. Also, the “antiviral activity (inhibition of the cytopathogenicity of the virus) vs HSV-1” value in [4] is listed as “powerful antiviral action”. Moreover, the “gene expression of the cytokine IL-10” value in the experiment on IL-10 is recorded as “significant increase”. The “antiviral activity vs Cytomegalovirus (inhibition of the number of plaques)” value in experiment [5] was “clear and significant positive result”. Besides, the “synthesis of IL-12” value in the experiment with IL-12 [6] is reported as “significantly reducing”. Besides, the “synthesis of IL-7” value with IL-7 is given as “significantly reducing”. Also, the “inhibition of the binding of TNF to its receptor” value with TNF receptor is 100%.

B1: PLASMIN: enzyme of the group of hydrolases degrading fibrin; control treatment of acknowledged fibrinolytic activity (protein, UniProt P00747 20-580; P00747 581-810, looked up)
Plasmin heavy chain A: EPLDDYVNTQGASLFSVTKKQLGAGSIEECAAKCEEDEEFTCRAFQYHSKEQQCVIMAENRKSSIIIRMRDVVLFEKKVYLSECKTGNGKNYRGTMSKTKNGITCQKWSSTSPHRPRFSPATHPSEGLEENYCRNPDNDPQGPWCYTTDPEKRYDYCDILECEEECMHCSGENYDGKISKTMSGLECQAWDSQSPHAHGYIPSKFPNKNLKKNYCRNPDRELRPWCFTTDPNKRWELCDIPRCTTPPPSSGPTYQCLKGTGENYRGNVAVTVSGHTCQHWSAQTPHTHNRTPENFPCKNLDENYCRNPDGKRAPWCHTTNSQVRWEYCKIPSCDSSPVSTEQLAPTAPPELTPVVQDCYHGDGQSYRGTSSTTTTGKKCQSWSSMTPHRHQKTPENYPNAGLTMNYCRNPDADKGPWCFTTDPSVRWEYCNLKKCSGTEASVVAPPPVVLLPDVETPSEEDCMFGNGKGYRGKRATTVTGTPCQDWAAQEPHRHSIFTPETNPRAGLEKNYCRNPDGDVGGPWCYTTNPRKLYDYCDVPQCAAPSFDCGKPQVEPKKCPGR
Plasmin light chain B: VVGGCVAHPHSWPWQVSLRTRFGMHFCGGTLISPEWVLTAAHCLEKSPRPSSYKVILGAHQEVNLEPHVQEIEVSRLFLEPTRKDIALLKLSSPAVITDKVIPACLPSPNYVVADRTECFITGWGETQGTFGAGLLKEAQLPVIENKVCNRYEFLNGRVQSTELCAGHLAGGTDSCQGDSGGPLVCFEKDKYILQGVTSWGLGCARPNKPGVYVRVSRFVTWIEGVMRNN
modifications: Plasmin
Turning to B1, the “fibrinolytic activity (mAbs/min)” value with fibrin clot (plasmin 0.5 mU) was determined as 1 mAbs/min; with fibrin clot (plasmin 1 U), 190 mAbs/min; with fibrin clot (plasmin 5 mU), 68 mAbs/min; with fibrin clot (plasmin 50 mU), 126 mAbs/min; with fibrin clot (plasmin 500 mU) it was 178 mAbs/min.
